Data taken from publication PMC6264766, “Fluorescence Resonance Energy Transfer Assay for High-Throughput Screening of ADAMTS1 Inhibitors” (Molecules, 2011).

Assays:
[1] = biological target: T1, human recombinant ADAMTS1 expressed in the murine myeloma cell line (R&D Systems) (Homo sapiens, UniProt Q9UHI8); assay: FRET peptide cleavage assay (Abz/Dnp), dose-response; type: biochemical
T1 construct: commercial recombinant protein from R&D Systems, murine myeloma cell line
T1 sequence (Q9UHI8 253-967): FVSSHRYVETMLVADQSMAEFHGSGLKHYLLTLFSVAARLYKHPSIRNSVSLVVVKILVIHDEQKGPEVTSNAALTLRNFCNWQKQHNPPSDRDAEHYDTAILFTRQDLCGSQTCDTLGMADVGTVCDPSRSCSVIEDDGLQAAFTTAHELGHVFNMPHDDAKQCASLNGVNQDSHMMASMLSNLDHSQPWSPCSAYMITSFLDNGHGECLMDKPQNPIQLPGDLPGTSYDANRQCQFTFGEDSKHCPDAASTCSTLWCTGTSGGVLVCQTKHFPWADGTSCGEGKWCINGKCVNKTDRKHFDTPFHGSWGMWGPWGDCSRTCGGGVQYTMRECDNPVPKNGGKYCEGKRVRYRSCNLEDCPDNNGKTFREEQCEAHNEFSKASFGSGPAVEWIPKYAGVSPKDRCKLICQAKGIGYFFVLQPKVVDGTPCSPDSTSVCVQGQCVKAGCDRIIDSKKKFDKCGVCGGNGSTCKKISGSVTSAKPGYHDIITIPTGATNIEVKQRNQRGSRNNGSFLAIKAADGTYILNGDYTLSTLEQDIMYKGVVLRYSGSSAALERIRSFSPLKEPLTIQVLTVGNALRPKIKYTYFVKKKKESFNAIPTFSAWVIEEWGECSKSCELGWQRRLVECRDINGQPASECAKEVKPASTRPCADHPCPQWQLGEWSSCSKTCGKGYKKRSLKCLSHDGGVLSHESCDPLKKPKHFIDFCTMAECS
From the text: FRET peptide cleavage assay (Abz/Dnp), dose-response on human recombinant ADAMTS1 expressed in the murine myeloma cell line (R&D Systems)

[2] = biological target: T2, recombinant ADAMTS1 (p65-ADAMTS1) expressed in E. coli (Homo sapiens, UniProt Q9UHI8); assay: as above; type: biochemical
T2 construct: 1452 nt cDNA fragment (nt 1206-2657, 484 codons; propeptide and C-terminal part absent; primer starts at KRFVSS, ends ISGSVTSA); pET32a Trx fusion, Trx removed by enterokinase, C-terminal His tag; E. coli BL21(DE3); heparin-sepharose purified; fusion about 70 kDa
T2 sequence (Q9UHI8 251-734): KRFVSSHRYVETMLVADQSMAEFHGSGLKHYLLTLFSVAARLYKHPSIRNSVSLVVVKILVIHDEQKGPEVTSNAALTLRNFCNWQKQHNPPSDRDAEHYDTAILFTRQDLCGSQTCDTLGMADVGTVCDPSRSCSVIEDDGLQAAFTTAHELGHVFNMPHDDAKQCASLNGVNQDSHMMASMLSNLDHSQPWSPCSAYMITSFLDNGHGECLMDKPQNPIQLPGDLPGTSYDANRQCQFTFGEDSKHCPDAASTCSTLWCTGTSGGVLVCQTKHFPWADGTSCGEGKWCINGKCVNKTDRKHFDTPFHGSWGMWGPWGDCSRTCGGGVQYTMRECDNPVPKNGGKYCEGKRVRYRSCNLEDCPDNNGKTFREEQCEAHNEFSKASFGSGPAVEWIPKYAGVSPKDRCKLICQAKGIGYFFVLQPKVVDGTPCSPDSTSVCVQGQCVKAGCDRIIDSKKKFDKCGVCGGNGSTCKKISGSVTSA
From the text: FRET peptide cleavage assay (Abz/Dnp), dose-response on recombinant ADAMTS1 (p65-ADAMTS1) expressed in E. coli

CC1=C[C@H](c2cc(/C=C/c3cc(O)cc(O)c3)c(O)cc2O)[C@@H](C(=O)c2ccc(O)cc2O)[C@H](c2ccc(O)cc2O)C1 [J14713, kuwanon P]
IC50 [1]: 5.5 ± 0.4 µM
IC50 [2]: 7.6 ± 0.6 µM

CC1=C[C@H](c2cc3cc(-c4cc(O)cc(O)c4)oc3cc2O)[C@@H](C(=O)c2ccc(O)cc2O)[C@H](c2ccc(O)cc2O)C1 [J14715, albafuran C]
IC50 [1]: 10.7 ± 0.6 µM
IC50 [2]: 11.9 ± 0.7 µM
